Measured values reported in patent US12042473B2, “Compounds and combinations thereof for treating neurological and psychiatric conditions” (priority 2022, dated 2024).
Counter-ions that a name gives are not always drawn. Like-named read-outs stand apart in the source and are kept apart here.

Columns and labels:
[1] = Co-administration of paroxetine and the subject combination in healthy volunteers (Example 3)
Description: Co-administration of the SSRI paroxetine and the subject combination was studied in 29 healthy volunteers.

[2] = human, in vivo
[3] = Pharmacokinetics after administration of the subject combination (steady state); details: for apparent elimination half-life: bupropion metabolites
[4] = Pharmacokinetics of the subject combination in moderate renal impairment (Example 1); details: moderate renal impairment (GFR 30-60 mL/min)
[5] = Food effect on pharmacokinetics of the subject combination; format: in vivo, human; details: subject combination administered with food
[6] = Pharmacokinetics of the subject combination in CYP2D6 poor metabolizers (Example 2)
Description: Approximately 7 to 10% of Caucasians and 3 to 8% of African Americans lack the capacity to metabolize CYP2D6 substrates and are classified as poor metabolizers.

[7] = cited from earlier work; for incidence of sedation (MOAA/S score <5): treatment-resistant depression

CC(NC(C)(C)C)C(=O)c1cccc(Cl)c1.Cl (racemic) [bupropion, (±)-1-(3-chlorophenyl)-2-[(1,1-dimethylethyl)amino]-1-propanone hydrochloride]
increase in overall exposure when paroxetine is co-administered with the subject combination ([1]; human, in vivo): no effect | increase in exposure versus matched controls with normal renal function [2]: approximately 2 fold | reduction in clearance versus matched controls with normal renal function [2]: 50%

COc1ccc2c(c1)[C@]13CCCC[C@@H]1[C@H](C2)N(C)CC3 [dextromethorphan, morphinan, 3-methoxy-17-methyl-, (9α, 13α, 14α), hydrobromide monohydrate]
increase in mean elimination half-life versus dextromethorphan given without bupropion ([3]; 8 days of subject combination, extensive metabolizers): approximately 3 fold | median Tmax ([3]; after administration of the subject combination): about 3 hours | dose proportionality of AUC and Cmax at steady state ([3]; co-administered with bupropion, dextromethorphan 30 to 60 mg, bupropion 75 to 150 mg): nonlinear pharmacokinetics | mean elimination half-life ([3]; human, in vivo): 22 h | increase in overall exposure when paroxetine is co-administered with the subject combination ([1]; healthy volunteers): 2.5 fold | increase in exposure versus matched controls with normal renal function [4]: approximately 2 fold | reduction in clearance versus matched controls with normal renal function [4]: 50% | decrease in AUC0-12 with food [5]: 14% | steady state plasma concentrations compared with non-poor metabolizers ([6]; 12 poor metabolizers in efficacy trials): generally higher | increase in AUC0-12 compared to extensive metabolizers ([6]; CYP2D6 poor metabolizers): ~3.4 fold | increase in Cmax compared to extensive metabolizers ([6]; CYP2D6 poor metabolizers): ~3 fold

CC(NC(C)(C)C)C(O)c1cccc(Cl)c1 (stereo not shown) [erythrohydroxybupropion]
apparent elimination half-life [3]: ~44 h

CN[C@]1(c2ccccc2Cl)CCCCC1=O [esketamine, Esketamine]
incidence of sedation (MOAA/S score <5) ([7]; 56 mg + oral AD, patients <65 years, fixed-dose study): 50% | incidence of sedation (MOAA/S score <5) ([7]; 84 mg + oral AD, patients <65 years, fixed-dose study): 61% | incidence of sedation (MOAA/S score <5) ([7]; 28 to 84 mg + oral AD, patients ≥65 years, flexible-dose study): 49% | incidence of sedation (MOAA/S score<5) compared to placebo plus oral antidepressant ([7]; plus oral antidepressant, adults with MDD with acute suicidal ideation or behavior): higher incidence of sedation

C[C@H]1NC(C)(C)CO[C@]1(O)c1cccc(Cl)c1 [hydroxybupropion]
apparent elimination half-life [3]: approximately 35 hours

Fc1ccc([C@@H]2CCNC[C@H]2COc2ccc3c(c2)OCO3)cc1 [paroxetine]
increase in overall exposure of paroxetine when co-administered with the subject combination ([1]; human, in vivo): 1.2 fold

C[C@H](NC(C)(C)C)[C@@H](O)c1cccc(Cl)c1 [threohydroxybupropion]
apparent elimination half-life [3]: ~33 h
